How the values were obtained:
male Wistar rats = experiment: Experiment 3: left ventricular diastolic function by tissue Doppler imaging; assay type: in vivo, rat; conditions: 0.3 mg/kg i.v. over 30 s then 0.02 mg/kg/min for 20 min
Procedure: In this experiment on the invention, two 9-week old male Wistar rats weighing 310 and 320 g were used. The rats were anesthetized with 1,000 mg/kg of urethane and 80 mg/kg of α-chloralose by subperitoneal injection, and natural respiration was maintained. In this experiment, 100 mg of the compound was dissolved in 1 ml of dimethylsulfoxide (DMSO) and the resulting DMSO solution was stored at 4° C. Norepinephrine solution was prepared by dissolving 1 mg of norepinephrine in 41 μl of distilled water.
Similarly to Test drug 1, this study was performed at room temperature of 20 to 25° C., and also similarly to Test drug 1, continuous infusion catheters of calcium chloride solution or norepinephrine solution containing calcium chloride were inserted into the right external jugular vein and microchip catheters (SPC-320, Millar) were inserted into the aorta via the right common arteries.
A 1-lead electrocardiogram was recorded, and blood pressure, pulse, and electrocardiogram of the rats were monitored for 15 minutes and allowed to stabilize. In the preparation step, calcium chloride dissolved in 5% dextrose solution was infused into the right external jugular vein for 25 minutes at 16.6 μl/min (9.0 mg/kg/min of calcium chloride).
Secondly, immediate injection (intravenous injection) of a solution containing calcium chloride and norepinephrine without changes in dosage was started via the right external jugular vein at a rate of 40 μg/kg/min. After the start of administration, calcium chloride and norepinephrine were continuously injected in the form of a norepinephrine solution containing calcium chloride. Furthermore, with continuous injection of calcium chloride and norepinephrine (in the form of a norepinephrine solution containing calcium chloride), 0.2 ml of 1% DSMO was administered alone over 30 seconds to the first rat (weight: 310 g) as a control via the right femoral vein, 5 minutes after commencement of intravenous injection of calcium chloride and norepinephrine (in the form of a norepinephrine solution containing calcium chloride); this rat was defined as Control 4. Similarly to Control 4, with continuous injection of calcium chloride and norepinephrine (in the form of a norepinephrine solution containing calcium chloride) 0.2 ml of 1% DSMO solution containing 0.3 mg/kg of the test drug in the invention was administered over 30 seconds to a second rat (weight: 320 g; Test drug 3) via its right femoral vein, followed by administration for 20 minutes at 0.02 mg/kg/min, 5 minutes after intravenous injection of calcium chloride and norepinephrine (in the form of a norepinephrine solution containing calcium chloride). The left ventricular diastolic function of each rat was examined using tissue Doppler ultrasonography. Ultrasonic diagnostic equipment (Toshiba Powervision SSA-380APSK-70LT, Toshiba Corporation) was used and the rats were examined using ultrasound at 10 MHz. Firstly, the precordial region of each rat was shaved, and an ECHO probe was placed on the cardiac apex. The long axis of the left ventricle of the cardiac apex was imaged, a sample volume for pulsed-wave Doppler was established at the base of the posterior mitral leaflet, and the velocity of the left ventricular posterior wall motion [Ea wave (m/sec)] was measured at diastole as the left ventricular diastolic function. In this experiment, the left ventricular diastolic function is defined as the ratio of the velocity of the left ventricular wall motion at diastole before intravenous injection of norepinephrine (before administration; i.e. a normal left ventricular wall) determined using tissue Doppler imaging, or the ratio of the velocity of the left ventricular wall motion at diastole after intravenous injection of norepinephrine (after administration).

white rabbits = experiment: Experiment 8: inhibition of clofilium-induced torsades de pointes; assay type: in vivo, rabbit
Procedure: Inhibition of clofilium-induced torsades de pointes by the compound In this experiment, four white rabbits (weight: 2.8-3.2 kg) were used. Each rabbit was intravenously anesthetized with 5 mg/kg methohexital sodium. Injection catheters for the compound and test drug were inserted into the right external jugular veins of the rabbits, and microchip catheters (SPC-320, Millar) for blood pressure measurement were inserted via the right common arteries, under artificial respiration by endotracheal intubation.
The compound solution was prepared by dissolving 100 mg of the compound in 1 ml of dimethylsulfoxide (DMSO), and stored at 4° C.
A 2-lead electrocardiogram and blood pressure of each rabbit were recorded simultaneously on a personal computer via an A/D converter. In this experiment, a sequence of more than 6 polymorphic ventricular tachycardia configurations on the electrocardiogram was defined as torsades de pointes. The number of onsets of torsades de pointes was recorded by electrocardiogram for 30 minutes after administration of clofilium. Methoxamine (an α-stimulant) was used to rapidly induce torsades de pointes. The compound, methoxyamine and clofilium were administered in physiological saline. […]

In the case of `COc1ccc2c(c1)CN(C(=O)CCN1CCC(Cc3ccccc3)CC1)CCS2` [the compound, 4-[3-(4-benzylpiperidine-1-yl)propionyl]-7-methoxy-2,3,4,5-tetrahydro-1,4-benzothiazepine], the “Ratio of the velocity of the left ventricular wall motion at diastole” value (“Ratio” for short) (male Wistar rats; 0 minutes (just before the start of intravenous injection of the test drug)) is reported as 1.00, the “Ratio” value (male Wistar rats; CaCl2 + norepinephrine infusion, 5 minutes after the start of test drug) is reported as 1.02 and the “Ratio” value (male Wistar rats; CaCl2 + norepinephrine infusion, 10 minutes after the start of test drug) is reported as 1.04. For the same molecule, the “Ratio” value (male Wistar rats; CaCl2 + norepinephrine infusion, 15 minutes after the start of test drug) was 1.00, the “Ratio” value (male Wistar rats; CaCl2 + norepinephrine infusion, 20 minutes after the start of test drug) was 1.00 and the “Ratio” value (male Wistar rats; CaCl2 + norepinephrine infusion, 25 minutes after the start of test drug) was 0.94. For the same molecule, the “Ratio” value (male Wistar rats; CaCl2 + norepinephrine infusion, 30 minutes after the start of test drug) was 0.95, the “Ratio” value (male Wistar rats; Ea wave relative to before norepinephrine, 5 minutes before test drug (just before the start of norepinephrine), baseline) was 1.00 and the “Onset of torsades de pointes (electrocardiogram)” value (white rabbits; clofilium 50 μg/kg/min + the compound 0.2 mg/kg/min i.v., monitored 30 minutes) was “completely prevented”. The “Incidence of torsades de pointes” value (white rabbits; number of onsets in 30 minutes after start of clofilium 50 μg/kg/min under methoxamine 15 μg/kg/min, the compound 0.2 mg/kg/min i.v. for 30 min) was 0.

From patent publication US20070219180A1, “Muscle Relaxtion Accelerator and Therapeutic Agent for Muscular Tissue Diseases Such as Muscle Relaxation Failure” (priority 2004, published 2007)
